Experiments:
[1] = molar heat capacity at constant pressure; xn = mol fraction of the nth substance listed; details: 101 kPa, Liquid, Large sample (1 g) DSC
[2] = molar heat capacity at constant pressure; details: 101.33 kPa, Liquid, Large sample (1 g) DSC

CC(O)COC(C)COC(C)CO (stereo unspecified) [2-[2-(2-hydroxypropoxy)propoxy]-1-propanol] + O
molar heat capacity at constant pressure [J/K/mol], [1]
Details	x1 = 0.2	x1 = 0.4	x1 = 0.5	x1 = 0.6	x1 = 0.8
303.15 K	158.9	234.7	271.9	309	381.4
308.15 K	160.5	237.2	275.1	312.1	385.8
313.15 K	162.2	240	278.1	315.6	389.6
318.15 K	163.4	241.6	280.9	317.9	392.4
323.15 K	164.9	244.5	283.2	321.6	396.3
328.15 K	166.2	246.6	286.1	324.7	400.5
333.15 K	167.8	249.9	289.3	328.3	404.1
338.15 K	169.1	252.2	292.5	331.3	407.6
343.15 K	170.7	254.8	295.5	334.9	411.8
348.15 K	172.2	257.4	298.5	338.2	416
353.15 K	173.9	260.2	302.1	342.1	420.3

OCCCOCCCO [4-oxa-1,7-heptanediol]
[2]
Details	molar heat capacity at constant pressure [J/K/mol]
303.15 K	329
313.15 K	335.9
323.15 K	342
333.15 K	348.5
343.15 K	355.1
353.15 K	362.6
